Tests used:
[1] = determination of pKa of the sulfonamide group by UV-VIS spectra at various pH; format: physicochemical; details: for f RSO2NH-, fraction of deprotonated sulfonamide: at pH 7.0, calculated from pKa; for pKa: calculated from spectra at various pH, 37 °C
CAIX = CAIX (Homo sapiens, UniProt Q16790); assay: fluorescent thermal shift assay (FTSA), CAIX; format: binding; details: for ΔGobs CAIX: pH 7
CAIII = CAIII (Homo sapiens, UniProt P07451); assay: fluorescent thermal shift assay (FTSA), CAIII; format: binding; details: 37 °C; for ΔGintr CAIII: converted from Kd_intr, independent of pH; for ΔGobs CAIII: converted from Kd_obs, pH 7.0, FTSA
Sequence of CAIII (P07451 whole entry): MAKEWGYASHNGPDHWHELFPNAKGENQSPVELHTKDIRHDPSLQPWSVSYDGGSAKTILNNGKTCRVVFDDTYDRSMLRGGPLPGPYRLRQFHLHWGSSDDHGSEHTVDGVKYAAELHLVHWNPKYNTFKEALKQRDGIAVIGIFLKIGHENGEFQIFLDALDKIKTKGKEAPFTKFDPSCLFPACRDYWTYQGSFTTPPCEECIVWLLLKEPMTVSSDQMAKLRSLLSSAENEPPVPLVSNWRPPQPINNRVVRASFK

CAXIV = CAXIV (Homo sapiens, UniProt Q9ULX7); assay: fluorescent thermal shift assay (FTSA), CAXIV; format: binding; details: 37 °C; for ΔGintr CAXIV: converted from Kd_intr, independent of pH; for ΔGobs CAXIV: converted from Kd_obs, pH 7.0, FTSA
Sequence of CAXIV (Q9ULX7 16-337): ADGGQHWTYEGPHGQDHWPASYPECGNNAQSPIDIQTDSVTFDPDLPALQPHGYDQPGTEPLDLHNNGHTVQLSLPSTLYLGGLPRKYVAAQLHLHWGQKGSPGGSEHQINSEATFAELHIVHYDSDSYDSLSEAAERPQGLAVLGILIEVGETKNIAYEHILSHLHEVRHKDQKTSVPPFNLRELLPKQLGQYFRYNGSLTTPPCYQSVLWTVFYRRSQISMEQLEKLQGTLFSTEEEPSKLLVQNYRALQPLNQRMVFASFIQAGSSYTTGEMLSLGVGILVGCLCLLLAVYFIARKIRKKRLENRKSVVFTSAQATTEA

CAII = CAII (Homo sapiens, UniProt P00918); assay: fluorescent thermal shift assay (FTSA), CAII; format: binding; details: 37 °C; for ΔGintr CAII: converted from Kd_intr, independent of pH; for ΔGobs CAII: converted from Kd_obs, pH 7.0, FTSA
CAVA = CAVA (Homo sapiens, UniProt P35218); assay: fluorescent thermal shift assay (FTSA), CAVA; format: binding; details: 37 °C; for ΔGintr CAVA: converted from Kd_intr, independent of pH; for ΔGobs CAVA: converted from Kd_obs, pH 7.0, FTSA
Sequence of CAVA (P35218 39-305): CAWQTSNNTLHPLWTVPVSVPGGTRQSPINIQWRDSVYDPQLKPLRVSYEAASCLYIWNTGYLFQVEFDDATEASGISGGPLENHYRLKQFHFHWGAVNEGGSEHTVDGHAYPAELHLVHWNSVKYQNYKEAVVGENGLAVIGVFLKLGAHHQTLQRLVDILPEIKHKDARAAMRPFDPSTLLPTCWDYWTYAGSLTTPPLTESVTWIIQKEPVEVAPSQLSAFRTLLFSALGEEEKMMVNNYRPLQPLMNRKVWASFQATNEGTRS

CAVII = CAVII (Homo sapiens, UniProt P43166); assay: fluorescent thermal shift assay (FTSA), CAVII; format: binding; details: 37 °C; for ΔGintr CAVII: converted from Kd_intr, independent of pH; for ΔGobs CAVII: converted from Kd_obs, pH 7.0, FTSA
Sequence of CAVII (P43166 whole entry): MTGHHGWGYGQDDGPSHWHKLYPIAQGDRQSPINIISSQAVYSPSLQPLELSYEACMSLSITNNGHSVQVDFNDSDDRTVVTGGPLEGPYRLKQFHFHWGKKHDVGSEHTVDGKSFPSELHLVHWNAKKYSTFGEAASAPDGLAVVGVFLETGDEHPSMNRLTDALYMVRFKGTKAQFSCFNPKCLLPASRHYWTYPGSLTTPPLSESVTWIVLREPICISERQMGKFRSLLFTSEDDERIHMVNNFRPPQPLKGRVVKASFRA

CAI = CAI (Homo sapiens, UniProt P00915); assay: fluorescent thermal shift assay (FTSA), CAI; format: binding; details: 37 °C; for ΔGintr CAI: converted from Kd_intr, independent of pH; for ΔGobs CAI: converted from Kd_obs, pH 7.0, FTSA
Sequence of CAI (P00915 whole entry): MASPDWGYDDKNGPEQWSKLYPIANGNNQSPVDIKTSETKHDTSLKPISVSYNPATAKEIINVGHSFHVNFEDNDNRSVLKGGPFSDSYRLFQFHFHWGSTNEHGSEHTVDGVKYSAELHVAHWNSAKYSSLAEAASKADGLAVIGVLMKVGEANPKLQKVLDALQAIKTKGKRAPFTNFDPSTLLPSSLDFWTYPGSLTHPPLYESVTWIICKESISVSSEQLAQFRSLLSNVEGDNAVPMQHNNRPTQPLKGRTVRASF

CAVI = CAVI (Homo sapiens, UniProt P23280); assay: fluorescent thermal shift assay (FTSA), CAVI; format: binding; details: 37 °C; for ΔGintr CAVI: converted from Kd_intr, independent of pH; for ΔGobs CAVI: converted from Kd_obs, pH 7.0, FTSA
Sequence of CAVI (P23280 18-308): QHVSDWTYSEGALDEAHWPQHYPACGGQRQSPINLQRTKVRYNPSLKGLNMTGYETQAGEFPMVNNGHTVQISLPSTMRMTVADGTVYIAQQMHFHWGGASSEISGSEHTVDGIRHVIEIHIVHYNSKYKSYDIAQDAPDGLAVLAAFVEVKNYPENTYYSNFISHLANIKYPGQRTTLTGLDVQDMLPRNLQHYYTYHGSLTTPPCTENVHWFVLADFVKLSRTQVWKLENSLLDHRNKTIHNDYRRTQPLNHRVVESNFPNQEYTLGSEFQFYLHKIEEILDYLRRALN

CAXIII = CAXIII (Homo sapiens, UniProt Q8N1Q1); assay: fluorescent thermal shift assay (FTSA), CAXIII; format: binding; details: 37 °C; for ΔGintr CAXIII: converted from Kd_intr, independent of pH; for ΔGobs CAXIII: converted from Kd_obs, pH 7.0, FTSA
Sequence of CAXIII (Q8N1Q1 whole entry): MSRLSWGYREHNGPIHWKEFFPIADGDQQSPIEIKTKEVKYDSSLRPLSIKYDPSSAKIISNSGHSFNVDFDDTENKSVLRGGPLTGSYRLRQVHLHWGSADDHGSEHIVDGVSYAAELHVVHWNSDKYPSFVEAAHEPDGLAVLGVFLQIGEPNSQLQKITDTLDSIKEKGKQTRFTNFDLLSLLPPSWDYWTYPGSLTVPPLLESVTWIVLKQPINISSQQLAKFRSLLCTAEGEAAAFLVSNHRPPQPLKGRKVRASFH

CAVB = CAVB (Homo sapiens, UniProt Q9Y2D0); assay: fluorescent thermal shift assay (FTSA), CAVB; format: binding; details: 37 °C; for ΔGintr CAVB: converted from Kd_intr, independent of pH; for ΔGobs CAVB: converted from Kd_obs, pH 7.0, FTSA
Sequence of CAVB (Q9Y2D0 34-317): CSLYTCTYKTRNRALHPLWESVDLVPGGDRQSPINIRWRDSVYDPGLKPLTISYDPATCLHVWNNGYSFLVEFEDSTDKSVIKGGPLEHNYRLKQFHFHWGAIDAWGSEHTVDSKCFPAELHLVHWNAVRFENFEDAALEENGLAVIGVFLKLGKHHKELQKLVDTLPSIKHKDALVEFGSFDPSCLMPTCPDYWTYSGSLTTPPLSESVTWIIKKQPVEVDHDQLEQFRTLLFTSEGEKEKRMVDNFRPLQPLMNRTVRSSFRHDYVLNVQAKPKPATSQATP

CAIV = CAIV (Homo sapiens, UniProt P22748); assay: fluorescent thermal shift assay (FTSA), CAIV; format: binding; details: 37 °C; for ΔGintr CAIV: converted from Kd_intr, independent of pH; for ΔGobs CAIV: converted from Kd_obs, pH 7.0, FTSA
Sequence of CAIV (P22748 19-312): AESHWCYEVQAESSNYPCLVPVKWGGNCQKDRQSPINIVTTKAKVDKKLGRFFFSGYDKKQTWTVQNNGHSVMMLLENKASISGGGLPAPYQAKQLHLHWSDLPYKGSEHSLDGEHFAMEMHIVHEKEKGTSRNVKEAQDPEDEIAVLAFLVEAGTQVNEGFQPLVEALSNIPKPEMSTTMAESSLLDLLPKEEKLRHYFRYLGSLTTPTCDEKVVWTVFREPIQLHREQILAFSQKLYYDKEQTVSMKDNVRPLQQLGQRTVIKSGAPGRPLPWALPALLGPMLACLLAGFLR

Compound	f RSO2NH-, fraction of deprotonated sulfonamide [1]	pKa [1]	ΔGintr CAIX (CAIX)	ΔGobs CAIX (CAIX)	ΔGintr CAXIV (CAXIV)	ΔGobs CAXIV (CAXIV)	ΔGintr CAII (CAII)	ΔGobs CAII (CAII)	ΔGintr CAVA (CAVA)	ΔGobs CAVA (CAVA)	ΔGintr CAVII (CAVII)	ΔGobs CAVII (CAVII)	ΔGintr CAI (CAI)	ΔGobs CAI (CAI)	ΔGintr CAVI (CAVI)	ΔGobs CAVI (CAVI)	ΔGintr CAXIII (CAXIII)	ΔGobs CAXIII (CAXIII)	ΔGintr CAVB (CAVB)	ΔGobs CAVB (CAVB)	further results
COC(=O)c1cc(S(N)(=O)=O)c(SCc2ccccc2)cc1Cl [Compound 3c, Methyl 4-(benzylsulfanyl)-2-chloro-5-sulfamoylbenzoate]	0.3%	9.5	-16.4 kcal/mol	-12.1 kcal/mol	-14.6 kcal/mol	-10.5 kcal/mol	-13.9 kcal/mol	-9.87 kcal/mol	≥ -9.06 kcal/mol	≥ -5.26 kcal/mol	-13.8 kcal/mol	-9.68 kcal/mol	-10.9 kcal/mol	-7.31 kcal/mol	-14.2 kcal/mol	-9.15 kcal/mol	-14.1 kcal/mol	-10.5 kcal/mol	-11.5 kcal/mol	-7.53 kcal/mol	ΔGintr CAIII (CAIII): -10.3 kcal/mol; ΔGobs CAIII (CAIII): -5.81 kcal/mol
COC(=O)c1cc(S(N)(=O)=O)c(SC2CCCCCCCCCCC2)cc1Cl [Compound 3e, Methyl 2-chloro-4-(cyclododecylsulfanyl)-5-sulfamoylbenzoate]	0.3%	9.6	-17.7 kcal/mol	-13.3 kcal/mol	-14.8 kcal/mol	-10.5 kcal/mol	-13.3 kcal/mol	-9.08 kcal/mol	≥ -9.2 kcal/mol	≥ -5.26 kcal/mol	-12 kcal/mol	-7.77 kcal/mol	-10.7 kcal/mol	-7 kcal/mol	-13.3 kcal/mol	-8.08 kcal/mol	-14.5 kcal/mol	-10.8 kcal/mol	-10 kcal/mol	-5.93 kcal/mol	ΔGintr CAIV (CAIV): -14 kcal/mol; ΔGobs CAIV (CAIV): -9.51 kcal/mol; ΔGintr CAIII (CAIII): ≥ -9.82 kcal/mol; ΔGobs CAIII (CAIII): ≥ -5.26 kcal/mol
COC(=O)c1cc(S(N)(=O)=O)c(SC2CCCCC2)cc1Br [Compound 4b, Methyl 2-bromo-4-(cyclohexylsulfanyl)-5-sulfamoylbenzoate]	0.3%		-18.5 kcal/mol	-14.1 kcal/mol	-15.2 kcal/mol	-10.9 kcal/mol	-13.7 kcal/mol	-9.51 kcal/mol	≥ -9.2 kcal/mol	≥ -5.26 kcal/mol	-13.7 kcal/mol	-9.44 kcal/mol	-11.1 kcal/mol	-7.34 kcal/mol	-14.1 kcal/mol	-8.87 kcal/mol	-14.4 kcal/mol	-10.6 kcal/mol	-11.9 kcal/mol	-7.77 kcal/mol	ΔGintr CAIII (CAIII): -10.7 kcal/mol; ΔGobs CAIII (CAIII): -6.14 kcal/mol
COC(=O)c1cc(S(N)(=O)=O)c(Cl)cc1SCCc1ccccc1 [Compound 5d, Methyl 4-chloro-2-(2-phenylethylsulfanyl)-5-sulfamoylbenzoate]	0.5%	9.3	-15.3 kcal/mol	-11.2 kcal/mol	-14.9 kcal/mol	-11 kcal/mol	-14.5 kcal/mol	-10.7 kcal/mol				-10.8 kcal/mol	-11.1 kcal/mol	-7.74 kcal/mol	-13.4 kcal/mol	-8.63 kcal/mol	-14.9 kcal/mol	-11.5 kcal/mol	-15.6 kcal/mol	-11.9 kcal/mol	ΔGintr CAIV (CAIV): -12.5 kcal/mol; ΔGobs CAIV (CAIV): -8.48 kcal/mol
COC(=O)c1cc(S(N)(=O)=O)c(Cl)cc1S(=O)(=O)C1CCCCC1 [Compound 9b, Methyl 4-chloro-2-cyclohexylsulfonyl-5-sulfamoyl-benzoate]	5.9%	8.2		-12.8 kcal/mol	-15.4 kcal/mol	-13 kcal/mol	-15.3 kcal/mol	-13 kcal/mol	-10.9 kcal/mol	-8.94 kcal/mol	-16.2 kcal/mol	-13.8 kcal/mol	-12 kcal/mol	-10.2 kcal/mol	-13.7 kcal/mol	-10.5 kcal/mol	-14 kcal/mol	-12.1 kcal/mol	-15.1 kcal/mol	-13 kcal/mol	ΔGintr CAIV (CAIV): -12 kcal/mol; ΔGobs CAIV (CAIV): -9.51 kcal/mol
COC(=O)c1cc(S(N)(=O)=O)c(Cl)cc1S(=O)(=O)CCc1ccccc1 [Compound 9d, Methyl 4-chloro-2-(2-phenylethylsulfonyl)-5-sulfamoylbenzoate]	3.8%	8.4		-12.2 kcal/mol	-15.2 kcal/mol	-12.6 kcal/mol	-15 kcal/mol	-12.5 kcal/mol	-11.8 kcal/mol	-9.51 kcal/mol	-15.5 kcal/mol	-12.9 kcal/mol	-11.3 kcal/mol	-9.2 kcal/mol	-14.2 kcal/mol	-10.8 kcal/mol	-14.2 kcal/mol	-12.1 kcal/mol		-12.7 kcal/mol	ΔGintr CAIII (CAIII): -11.4 kcal/mol; ΔGobs CAIII (CAIII): -8.56 kcal/mol
COC(=O)c1cc(S(N)(=O)=O)c(Br)cc1S(=O)(=O)c1ccccc1 [Compound 10a, Methyl 2-(benzenesulfonyl)-4-bromo-5-sulfamoylbenzoate]	3.8%	8.4	-62.0	-12 kcal/mol	-14.9 kcal/mol	-12.3 kcal/mol	-14.8 kcal/mol	-12.3 kcal/mol			-15.6 kcal/mol	-13 kcal/mol	-11.3 kcal/mol	-9.2 kcal/mol	-13.4 kcal/mol	-9.89 kcal/mol	-13.9 kcal/mol	-11.9 kcal/mol	-14.2 kcal/mol	-11.8 kcal/mol	

— publication PMC8745178, “Methyl 2-Halo-4-Substituted-5-Sulfamoyl-Benzoates as High Affinity and Selective Inhibitors of Carbonic Anhydrase IX” (International Journal of Molecular Sciences, 2021)
